According to patent US7192943B2, “Cephem compounds” (Astellas Pharma Inc., priority 2003, dated 2007):
Values after ≈ are worked out from the molar mass of the structure shown.

tested on: Pseudomonas aeruginosa FP 1380; test: In vitro antibacterial activity (MIC) by two-fold agar-plate dilution method; type: cell-based; settings: FP1380; test strain Pseudomonas aeruginosa FP 1380; heart infusion agar, incubation at 37° C. for 20 hours
Experimental: Now in order to show the utility of the object compound [I], the test data on MIC (minimal inhibitory concentration) of a representative compound of this invention are shown in the following.
In vitro antibacterial activity was determined by the two-fold agar-plate dilution method as described below.
One loopful of an overnight culture of each test strain in Trypticase-soy broth (10^6 viable cells per ml) was streaked on heart infusion agar (HI-agar) containing graded concentrations of representative test compound, and the minimal inhibitory concentration (MIC) was expressed in μg/ml after incubation at 37° C. for 20 hours.

Row | Structure (SMILES) | MIC [mg/L]
1 | Cn1c(N)c(NC(=O)N(CCN)CCCN)c[n+]1CC1=C(C(=O)[O-])N2C(=O)[C@@H](NC(=O)/C(=N\OC(C)(C)C(=O)O)c3nsc(N)n3)[C@H]2SC1 [Compound (c), 7β-[(Z)-2-(5-amino-1,2,4-thiadiazol-3-yl)-2-(1-carboxy-1-methylethoxyimino)acetamido]-3-[3-amino-4-({[N-(2-aminoethyl)-N-(3-aminopropyl)amino]carbonyl}-amino)-2-methyl-1-pyrazolio]methyl-3-cephem-4-carboxylate] | 1 (≈ 1.38 µM)
2 | CC(C)(O/N=C(\C(=O)N[C@@H]1C(=O)N2C(C(=O)[O-])=C(C[n+]3ccccc3)CS[C@H]12)c1csc(N)n1)C(=O)O [Ceftazidime, reference compound] | 128 (≈ 234 µM)
3 | Cn1c(N)c(NC(=O)CC(=O)NC(CN)CN)c[n+]1CC1=C(C(=O)[O-])N2C(=O)[C@@H](NC(=O)/C(=N\OC(C)(C)C(=O)O)c3nsc(N)n3)[C@H]2SC1 [Compound (e), 7β-[(Z)-2-(5-amino-1,2,4-thiadiazol-3-yl)-2-(1-carboxy-1-methylethoxyimino)acetamido]-3-{3-amino-4-[(3-{[2-amino-1-(aminomethyl)ethyl]amino}-3-oxopropanoyl)amino]-2-methyl-1-pyrazolio}methyl-3-cephem-4-carboxylate] | 1 (≈ 1.36 µM)
4 | Cn1c(N)c(NC(=O)N(CCN)CCN)c[n+]1CC1=C(C(=O)O)N2C(=O)[C@@H](NC(=O)/C(=N\OC(C)(C)C(=O)O)c3nsc(N)n3)[C@H]2SC1.O=S(=O)([O-])O [Compound (b), 7β-[(Z)-2-(5-amino-1,2,4-thiadiazol-3-yl)-2-(1-carboxy-1-methylethoxyimino)acetamido]-3-{3-amino-4-({[bis(2-aminoethyl)amino]carbonyl}amino)-2-methyl-1-pyrazolio}methyl-3-cephem-4-carboxylic acid hydrogensulfate] | 1
5 | Cn1c(N)c(NC(=O)NC(CN)CN)c[n+]1CC1=C(C(=O)O)N2C(=O)[C@@H](NC(=O)/C(=N\OC(C)(C)C(=O)O)c3nsc(N)n3)[C@H]2SC1.O=S(=O)([O-])O [Compound (d), 7β-[(Z)-2-(5-amino-1,2,4-thiadiazol-3-yl)-2-(1-carboxy-1-methylethoxyimino)acetamido]-3-(3-amino-4-{3-[2-amino-1-(aminomethyl)ethyl]ureido}-2-methyl-1-pyrazolio)methyl-3-cephem-4-carboxylic acid hydrogensulfate] | 1
6 | Cn1c(N)c(NC(=O)N(CCN)CCN)c[n+]1CC1=C(C(=O)[O-])N2C(=O)[C@@H](NC(=O)/C(=N\OC(C)(C)C(=O)O)c3nsc(N)n3)[C@H]2SC1 [Compound (a), 7β-[(Z)-2-(5-amino-1,2,4-thiadiazol-3-yl)-2-(1-carboxy-1-methylethoxyimino)acetamido]-3-{3-amino-4-({[bis(2-aminoethyl)amino]carbonyl}amino)-2-methyl-1-pyrazolio}methyl-3-cephem-4-carboxylate] | 1 (≈ 1.41 µM)
